Experimental data: patent publication US11865126B2, “Method for treating anxiety disorders, headache disorders, and eating disorders with psilocybin” (priority 2019, dated 2024)

Test system: healthy subjects
Assay: Phase 1 healthy volunteer study, single oral dose: treatment-emergent adverse events
Assay type: in vivo, human
Details: 10 mg
Experimental: A Phase 1 randomized, double-blind, placebo-controlled study to evaluate the effect of psilocybin on cognitive and emotional processing as compared to placebo in healthy volunteers was conducted. The study investigated the short-term (Day 7) and long-term (Day 28) effects of moderate (10 mg) and high doses (25 mg) of psilocybin on key domains of cognition, such as episodic memory, attention, working and spatial memory, social cognition and elements of executive function, including cognitive flexibility.
90 healthy subjects were studied. Approximately 50% of the subjects were psilocybin-naïve. For subjects with prior psilocybin experience, the last exposure was at least 1 year prior to the signing of the Informed Consent Form (ICF). Approximately 50% of the subjects were female. Subjects were stratified by sex and age (18-35 years old; >35 years old).
Each subject was assigned 1 treatment bottle containing 5 capsules packaged in a double-blind fashion, depending on the randomized treatment arm, the bottle contained one of the following: • a. Psilocybin 10 mg: 2×5-mg oral psilocybin capsules plus 3× placebo capsules • b. Psilocybin 25 mg: 5×5-mg oral psilocybin capsules • c. Placebo: 5× placebo capsules
Each 5-mg oral psilocybin capsule comprised 5 mg crystalline psilocybin in the form of Polymorph A, 12.5 mg of SMCC 50, 79.5 mg of SMCC 90, 1 mg sodium starch glycolate, 1 mg colloidal silicon dioxide, and 1 mg sodium stearyl fumarate
Adverse events: Throughout the course of the study, all AEs were monitored and recorded. Each AE was classified according to the following criteria: • i. […] Moderate: The AE produces some impairment of functioning, but is not hazardous to the subject's health. • iii. Severe: The AE produces significant impairment of functioning or incapacitation and is a definite hazard to the subject's health.
Selected Adverse Events of included: • (a) Euphoric mood • (b) Dissociative disorder • (c) Hallucination • (d) Psychotic disorder • (e) Cognitive disorder • (f) Disturbance in attention • (g) Altered mood • (h) Impairment of psychomotor skills • (i) Inappropriate affect • (j) Overdose • (k) Intentional product misuse • (l) Illusion
For example, drug-induced hepatitis that resolved without evidence of hepatic failure would not be considered life threatening even though drug-induced hepatitis can be fatal. • (c) Inpatient hospitalization or prolongation of existing hospitalization. • (d) Persistent or significant disability/incapacity. • (e) Congenital anomaly/birth defect in the offspring of a subject who received psilocybin. • (f) Other: Important medical events that may not result in death, be life-threatening, or require hospitalization, may be considered an SAE when, based upon appropriate medical judgment, they may jeopardize the subject and may require medical or surgical intervention to prevent one of the outcomes listed in this definition. […] Visits:
Visit 3 (V3): Drug Administration (Day 0): The subject was asked to eat a light breakfast at least two hours prior to coming to the clinic for study drug administration. On Day 0 (V3), the subject underwent the SSTS, had vital signs obtained, medications reviewed, AEs recorded and eligibility reviewed prior to being randomized to study drug. The study drug was administered to up to six subjects simultaneously in individual beds separated by a curtain. The subject was invited to put on eyeshades and headphones, lie down and listen to calming music for the rest of the session (six hours). The subject was supported 1:1 with a chaperone and supervised by the study psychiatrist and lead therapist.
Recording of adverse events and prior/concomitant medication was performed at each visit.
During administration of psilocybin, each subject received one on one support from a trained assisting therapist and each dosing session was supervised by a study psychiatrist and a lead therapist. […]

CN(C)CCc1c[nH]c2cccc(OP(=O)(O)O)c12 [psilocybin]
AEs potentially related to study treatment, % of AEs in arm: 92.6% | Affect lability, worst severity Mild: Events: 3 | Affect lability, worst severity Mild: N (%): 3 (10.0) | Affect lability, worst severity Moderate: Events: 2 | Affect lability, worst severity Severe: Events: 0 | Affect lability, worst severity Severe: N (%): 0 | Affect lability: Events: 5 | Any Selected TEAE: % of subjects: (90.0) % | Any Selected TEAE: N (%): 27 | Any TEAE leading to death: Events: 0 | Any TEAE leading to death: N (%): 0 | Any TEAE leading to study discontinuation: Events: 0 | Any TEAE leading to study discontinuation: N (%): 0 | Any TEAE related to study treatment: % of subjects: (96.7) % | Any TEAE related to study treatment: N (%): 29 | Any TEAE, worst severity Mild: Events: 12 | Any TEAE, worst severity Mild: N (%): 6 (20.0) | Any TEAE, worst severity Moderate: Events: 38 | Any TEAE, worst severity Severe: Events: 22 | Any TEAE: % of subjects: 96.7% | Any serious TEAE related to study treatment: Events: 0 | Any serious TEAE related to study treatment: N (%): 0 | Any serious TEAE: Events: 0 | Any serious TEAE: N (%): 0 | Any severe TEAE: % of subjects: (33.3) % | Any severe TEAE: Events: 22 | Any severe TEAE: N (%): 10 | Emotional disorder, worst severity Mild: Events: 1 | Emotional disorder, worst severity Moderate: Events: 1 | Emotional disorder, worst severity Severe: Events: 0 | Emotional disorder, worst severity Severe: N (%): 0 | Emotional disorder: Events: 2 | Euphoric mood, worst severity Mild: Events: 0 | Euphoric mood, worst severity Mild: N (%): 0 | Euphoric mood, worst severity Moderate: Events: 6 | Euphoric mood, worst severity Moderate: N (%): 6 (20.0) | Euphoric mood, worst severity Severe: Events: 1 | Euphoric mood: Events: 7 | Fatigue, worst severity Mild: Events: 6 | Fatigue, worst severity Mild: N (%): 6 (20.0) | Fatigue, worst severity Moderate: Events: 3 | Fatigue, worst severity Severe: Events: 1 | Fatigue: Events: 10 | Fatigue: N (%): 9 (30.0) | Feeling abnormal, worst severity Mild: Events: 3 | Feeling abnormal, worst severity Mild: N (%): 3 (10.0) | Feeling abnormal, worst severity Moderate: Events: 1 | Feeling abnormal, worst severity Severe: Events: 0 | Feeling abnormal, worst severity Severe: N (%): 0 | Feeling abnormal: Events: 4 | Feeling of relaxation: Events: 5 | Feeling of relaxation: N (%): 3 (10.0) | Gastrointestinal disorders, worst severity Mild: Events: 3 | Gastrointestinal disorders, worst severity Mild: N (%): 3 (10.0) | Gastrointestinal disorders, worst severity Moderate: Events: 1 | Gastrointestinal disorders, worst severity Severe: Events: 0 | Gastrointestinal disorders, worst severity Severe: N (%): 0 | Gastrointestinal disorders: Events: 4 | General disorders and administration site conditions, worst severity Mild: Events: 17 | General disorders and administration site conditions, worst severity Moderate: Events: 6 | General disorders and administration site conditions, worst severity Moderate: N (%): 3 (10.0) | General disorders and administration site conditions, worst severity Severe: Events: 1 | General disorders and administration site conditions: Events: 27 | Hallucination, auditory, worst severity Mild: Events: 1 | Hallucination, auditory, worst severity Moderate: Events: 1 | Hallucination, auditory, worst severity Severe: Events: 2 | Hallucination, auditory: Events: 4 | Hallucination, tactile: Events: 2 | Hallucination, visual, worst severity Mild: Events: 3 | Hallucination, visual, worst severity Mild: N (%): 3 (10.0) | Hallucination, visual, worst severity Moderate: Events: 8 | Hallucination, visual, worst severity Severe: Events: 7 | Hallucination, visual: Events: 20 | Hallucination, worst severity Mild: Events: 0 | Hallucination, worst severity Mild: N (%): 0 | Hallucination, worst severity Moderate: Events: 3 | Hallucination, worst severity Moderate: N (%): 3 (10.0) | Hallucination, worst severity Severe: Events: 0 | Hallucination, worst severity Severe: N (%): 0 | Hallucination: Events: 3 | Hallucination: N (%): 3 (10.0) | Headache, worst severity Mild: Events: 12 | Headache, worst severity Mild: N (%): 9 (30.0) | Headache, worst severity Moderate: Events: 0 | Headache, worst severity Moderate: N (%): 0 | Headache, worst severity Severe: Events: 0 | Headache, worst severity Severe: N (%): 0 | Headache: Events: 12 | Headache: N (%): 9 (30.0) | Hypoaesthesia, worst severity Mild: Events: 2 | Hypoaesthesia, worst severity Moderate: Events: 0 | Hypoaesthesia, worst severity Moderate: N (%): 0 | Hypoaesthesia, worst severity Severe: Events: 0 | Hypoaesthesia, worst severity Severe: N (%): 0 | Hypoaesthesia: Events: 2 | Illusion, worst severity Mild: Events: 7 | Illusion, worst severity Moderate: Events: 6 | Illusion, worst severity Severe: Events: 0 | Illusion, worst severity Severe: N (%): 0 | Illusion: Events: 25 | Infections and infestations, worst severity Mild: Events: 2 | Infections and infestations, worst severity Moderate: Events: 2 | Infections and infestations, worst severity Severe: Events: 0
